In one test the test system is T*23. Nature of the test: Antitumor activity in doxorubicin-resistant Brca1 and p53 deficient mouse mammary tumor T*23 cell xenografted mouse hereditary breast cancer model at 25 mg/kg, iv. In kind it is functional, organism-based. The arrangement: dose 25 mg/kg.
The subject of test [1] is Mus musculus. Nature of the test: Antitumor activity in Brca1 and p53 deficient K14cre mouse hereditary breast cancer model at 25 mg/kg, iv. It counts as functional, organism-based. Details: dose 25 mg/kg.
Test [2] relates to Mus musculus. Briefly: Antitumor activity in doxorubicin-sensitive Brca1 and p53 deficient mouse mammary tumor cell xenografted mouse hereditary breast cancer model at 25 mg/kg, iv. It counts as functional, organism-based. Details: dose 25 mg/kg.
Test [3] can be described thus: Antitumor activity in Brca1 and p53 deficient mouse mammary tumor cell xenografted mouse hereditary breast cancer model assessed as median survival at 25 mg/kg, iv. It counts as functional.
Test [4] in a line: Antitumor activity in Brca1 and p53 deficient mouse mammary tumor cell xenografted mouse hereditary breast cancer model assessed as median survival at 5 mg/kg, iv. It counts as functional.
In test [5] the test system is Mus musculus. Briefly: Antitumor activity in Brca1 and p53 deficient K14cre mouse hereditary breast cancer model at 5 mg/kg, iv. It counts as functional, organism-based. The arrangement: dose 5 mg/kg.

Active and inactive are the calls of the source. The calls are words filed in the database; no cut-off is given here.

For `CC(=O)O[C@@]12CO[C@@H]1C[C@H](O)[C@@]1(C)C(=O)[C@H](O)C3=C(C)[C@@H](OC(=O)[C@H](O)[C@@H](NC(=O)OC(C)(C)C)c4ccccc4)C[C@@](O)([C@@H](OC(=O)c4ccccc4)[C@H]21)C3(C)C.O.O.O` [DOCETAXEL], the result in the test on T*23 was inactive. Moreover, the outcome with Mus musculus [1] and with Mus musculus [2] was Active. In addition, the Survival in test [3] came out at 44 days.
Regarding `COc1cccc2c1C(=O)c1c(O)c3c(c(O)c1C2=O)C[C@@](O)(C(=O)CO)C[C@@H]3O[C@H]1C[C@H](N)[C@H](O)[C@H](C)O1` [DOXORUBICIN], in test [4], the Survival was 63 days. For the same compound, the outcome with Mus musculus [5] was Active.

Source of the values: ChEMBL document CHEMBL1156488, “Selective induction of chemotherapy resistance of mammary tumors in a conditional mouse model for hereditary breast cancer” (2007).
